Source: patent US11472805B2, “Tricyclic compounds and their use as phosphodiesterase inhibitors” (Pfizer Inc., priority 2015, dated 2022)
Where two headings read alike, the source gives them in different places.

Legend:
Format in all cases: biochemical
Human PDE4C1 = Human PDE4C1 (Homo sapiens (Human), UniProt Q08493); assay: PDE4C1 Scintillation Proximity Assay (SPA), inhibition of enzyme activity; details: read-out: Human PDE4C FL
Description: (§1) The PDE4A, PDE4B, PDE4C and PDE4D binding affinity for the compounds of the present invention was determined utilizing the following biological assay(s):
(§2) The recombinant Bacmid was isolated and used to transfect insect cells to generate a viral stock. To generate cell paste for purification, insect cells were infected with the virus stock and cells were harvested 72 hours after infection. Insect cell paste was lysed and after centrifugation, the supernatant was batch bound to Ni-NTA agarose (GE Healthcare) and eluted with 250 mM imidazole. This eluate was diluted with FLAG buffer (50 mM Tris HCL pH 7.5, 100 mM NaCl, 5% Glycerol, 1 mM TCEP with protease inhibitors) and batch bound to ant-FLAG M2 agarose (Sigma) overnight at 4° C. The agarose was packed into a column, washed with buffer and eluted with buffer containing elute using 250 ug/ml Flag-peptide. Fractions were analyzed using SDS-PAGE Coomassie blue staining and pooled based on purity. Pooled fractions were chromatographed on a S200 120 ml column (GE Healthcare) in 50 mM Tris HCL pH 7.5, 150 mM NaCl, 10% Glycerol, 2 mM TCEP with protease inhibitors. PDE4C1 fractions were analyzed by SDS-PAGE Coomassie blue staining, pooled based on purity, dialyzed against 50 mM Tris HCL pH 7.5, 100 mM NaCl, 20% Glycerol, 2 mM TCEP, frozen and stored at −80° C.
(§3) The PDE4A3, PDE4B1, PDE4C1 and PDE4D3 assays use the Scintillation Proximity Assay (SPA) technology to measure the inhibition of human recombinant PDE4A1, PDE4B3, PDE4C1, and PDE4D3 enzyme activity by compounds in vitro. The PDE4A1, PDE4B3, PDE4C1, and PDE4D3 assays are run in parallel using identical parameters, except for the concentration of enzyme ([…]). The assays are performed in a 384-well format with 50 uL assay buffer (50 mM TRIS pH7.5; 1.3 mM MgCl2; 0.01% Brij) containing enough PDE4A3, PDE4B1, PDE4C1, and PDE4D to convert ˜20% of substrate (1 μM cAMP consisting of 20 nM 3H-cAMP+[…] cold cAMP) and a range of inhibitors. Reactions are incubated for 30 min at 25° C. The addition of 20 uL of 8 mg/ml yitrium silicate SPA beads (Perkin Elmer) stops the reaction. The plates are sealed (TopSeal, Perkin Elmer) and the beads are allowed to settle for 8 hrs, after which they are read on the Trilux Microbeta overnight.

human PDE4D3 = human PDE4D3 (Homo sapiens (Human), UniProt Q08499); assay: PDE4D3 Scintillation Proximity Assay (SPA), inhibition of enzyme activity; details: read-out: Human PDE4D FL
Sequence of human PDE4D3 (Q08499 186-808): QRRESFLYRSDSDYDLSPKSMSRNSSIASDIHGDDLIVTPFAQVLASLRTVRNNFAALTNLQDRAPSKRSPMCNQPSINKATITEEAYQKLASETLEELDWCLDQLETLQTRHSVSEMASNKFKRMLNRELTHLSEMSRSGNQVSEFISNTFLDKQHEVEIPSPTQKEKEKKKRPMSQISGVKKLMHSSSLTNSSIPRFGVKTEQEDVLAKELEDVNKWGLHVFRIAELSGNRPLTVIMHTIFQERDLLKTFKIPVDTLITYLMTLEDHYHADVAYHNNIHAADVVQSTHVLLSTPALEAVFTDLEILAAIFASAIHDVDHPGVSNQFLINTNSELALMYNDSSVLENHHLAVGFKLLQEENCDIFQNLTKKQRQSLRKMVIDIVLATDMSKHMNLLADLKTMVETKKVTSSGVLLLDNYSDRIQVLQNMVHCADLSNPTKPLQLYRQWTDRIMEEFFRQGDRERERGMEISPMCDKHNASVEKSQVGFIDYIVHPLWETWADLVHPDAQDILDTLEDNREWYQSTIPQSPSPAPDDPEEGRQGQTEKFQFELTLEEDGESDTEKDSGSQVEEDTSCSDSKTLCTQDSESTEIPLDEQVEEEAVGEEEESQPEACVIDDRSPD
Description: as §1
A portion of the human PDE4D3 coding sequence (amino acids 50 to 672 from the sequence with accession number Q08499-2) was cloned into the baculovirus expression vector pFastBac (Invitrogen) engineered to include a C-terminal His6 affinity tag to aid in purification as described in Seeger, T. F. et al., Brain Research 985 (2003) 113-126. The recombinant Bacmid was isolated and used to transfect insect cells to generate a viral stock. To generate cell paste for purification, insect cells were infected and cells were harvested 72 hours after infection. Insect cell paste was lysed and after centrifugation, the supernatant was chromatographed on Ni-NTA agarose (Qiagen) as described in Seeger, T. F. et al., Brain Research 985 (2003) 113-126. Ni-NTA agarose eluting fractions containing PDE4 were pooled, diluted with Q Buffer A (50 mM Tris HCl pH 8, 4% glycerol, 100 mM NaCl, 1 mM TCEP, Protease inhibitors EDTA-free (Roche)) to reduce NaCl to ˜200 mM, and loaded on a Q Sepharose (GE Healthcare) column. After washing with Q buffer A to baseline, PDE4D was eluted with a gradient from 10% to 60% of Buffer B (50 mM Tris HCl pH 8, 1 M NaCl, 4% glycerol, 1 mM TCEP). PDE4D fractions were analyzed by SDS-PAGE Coomassie blue staining, pooled based on purity, frozen and stored at −80° C.
as §3

Human PDE4B1 = Human PDE4B1 (Homo sapiens (Human), UniProt Q07343, S133E/S654A/S659A/S661A); assay: PDE4B1 Scintillation Proximity Assay (SPA), inhibition of enzyme activity; details: read-out: Human PDE4B FL
Sequence of Human PDE4B1 (Q07343 122-736 S133E/S654A/S659A/S661A): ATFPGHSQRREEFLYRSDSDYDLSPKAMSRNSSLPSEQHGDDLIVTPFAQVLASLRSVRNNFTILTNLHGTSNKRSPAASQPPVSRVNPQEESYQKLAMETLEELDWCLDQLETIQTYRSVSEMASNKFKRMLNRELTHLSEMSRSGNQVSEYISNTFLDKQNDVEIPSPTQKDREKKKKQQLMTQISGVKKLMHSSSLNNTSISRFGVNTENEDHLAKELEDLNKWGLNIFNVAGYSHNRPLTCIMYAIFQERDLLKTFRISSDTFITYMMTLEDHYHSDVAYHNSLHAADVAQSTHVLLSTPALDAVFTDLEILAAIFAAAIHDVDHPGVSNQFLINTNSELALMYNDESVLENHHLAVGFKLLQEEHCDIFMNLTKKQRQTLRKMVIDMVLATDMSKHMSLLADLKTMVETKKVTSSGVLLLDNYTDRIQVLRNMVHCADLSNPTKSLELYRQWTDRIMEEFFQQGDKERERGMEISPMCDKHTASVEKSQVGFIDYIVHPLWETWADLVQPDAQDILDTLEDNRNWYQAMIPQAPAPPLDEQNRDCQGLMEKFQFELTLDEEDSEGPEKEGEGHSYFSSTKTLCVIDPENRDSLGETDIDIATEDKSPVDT
Description: as §1
The recombinant Bacmid was isolated and used to transfect insect cells to generate a viral stock. To generate cell paste for purification, insect cells were infected with the virus stock and cells were harvested 72 hours after infection as described in Seeger, T. F. et al., Brain Research 985 (2003) 113-126. Insect cell paste was lysed and after centrifugation, the supernatant was chromatographed on Ni-NTA agarose (Qiagen) as described in Seeger, T. F. et al., Brain Research 985 (2003) 113-126. Ni-NTA agarose eluting fractions containing PDE4 were pooled, diluted with Q buffer A (20 mM Tris HCl pH 8, 5% glycerol, 1 mM TCEP) to reduce NaCl to ˜100 mM and loaded on a Source 15Q (GE Healthcare) column. After washing with Q buffer A/10% buffer B to baseline, PDE4D was eluted with a gradient from 10% to 60% of Buffer B (20 mM Tris HCl pH 8, 1 M NaCl, 5% glycerol, 1 mM TCEP). PDE4D fractions were analyzed by SDS-PAGE Coomassie blue staining, pooled based on purity, frozen and stored at −80° C.
as §3

Human PDE4A3 = Human PDE4A3 (Homo sapiens (Human), UniProt P27815); assay: PDE4A3 Scintillation Proximity Assay (SPA), inhibition of enzyme activity; details: read-out: Human PDE4A FL
Sequence of Human PDE4A3 (P27815 other isoform, or with tags, fused parts or gaps): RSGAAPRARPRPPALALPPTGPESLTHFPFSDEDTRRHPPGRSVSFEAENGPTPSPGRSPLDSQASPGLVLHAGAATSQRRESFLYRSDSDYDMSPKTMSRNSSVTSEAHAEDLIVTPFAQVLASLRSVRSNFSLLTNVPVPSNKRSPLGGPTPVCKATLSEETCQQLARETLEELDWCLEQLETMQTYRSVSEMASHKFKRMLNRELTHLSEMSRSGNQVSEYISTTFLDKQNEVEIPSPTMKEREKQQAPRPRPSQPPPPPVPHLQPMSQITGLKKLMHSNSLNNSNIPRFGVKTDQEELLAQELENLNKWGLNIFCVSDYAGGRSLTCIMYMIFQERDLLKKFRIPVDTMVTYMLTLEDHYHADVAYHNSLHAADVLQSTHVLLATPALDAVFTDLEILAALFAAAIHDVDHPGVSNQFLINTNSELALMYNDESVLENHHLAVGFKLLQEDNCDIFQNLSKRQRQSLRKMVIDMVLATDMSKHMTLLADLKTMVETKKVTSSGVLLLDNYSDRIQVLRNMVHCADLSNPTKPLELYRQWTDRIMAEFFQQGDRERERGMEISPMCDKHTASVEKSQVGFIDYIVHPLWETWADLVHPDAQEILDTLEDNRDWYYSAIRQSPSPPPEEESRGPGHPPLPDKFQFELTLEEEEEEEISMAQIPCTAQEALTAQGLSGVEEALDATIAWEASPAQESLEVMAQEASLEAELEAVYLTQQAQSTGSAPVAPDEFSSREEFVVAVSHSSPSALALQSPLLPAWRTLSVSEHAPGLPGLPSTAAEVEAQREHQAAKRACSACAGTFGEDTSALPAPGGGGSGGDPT
Description: as §1
as §2, with “PDE4A3” for “PDE4C1”
as §3

[1] = Table 10, geometric mean of 2-9 determinations unless otherwise indicated
[2] = Table 9, geometric mean of 2-9 determinations unless otherwise indicated

Sequence of Human PDE4C1 (Q08493 2-712): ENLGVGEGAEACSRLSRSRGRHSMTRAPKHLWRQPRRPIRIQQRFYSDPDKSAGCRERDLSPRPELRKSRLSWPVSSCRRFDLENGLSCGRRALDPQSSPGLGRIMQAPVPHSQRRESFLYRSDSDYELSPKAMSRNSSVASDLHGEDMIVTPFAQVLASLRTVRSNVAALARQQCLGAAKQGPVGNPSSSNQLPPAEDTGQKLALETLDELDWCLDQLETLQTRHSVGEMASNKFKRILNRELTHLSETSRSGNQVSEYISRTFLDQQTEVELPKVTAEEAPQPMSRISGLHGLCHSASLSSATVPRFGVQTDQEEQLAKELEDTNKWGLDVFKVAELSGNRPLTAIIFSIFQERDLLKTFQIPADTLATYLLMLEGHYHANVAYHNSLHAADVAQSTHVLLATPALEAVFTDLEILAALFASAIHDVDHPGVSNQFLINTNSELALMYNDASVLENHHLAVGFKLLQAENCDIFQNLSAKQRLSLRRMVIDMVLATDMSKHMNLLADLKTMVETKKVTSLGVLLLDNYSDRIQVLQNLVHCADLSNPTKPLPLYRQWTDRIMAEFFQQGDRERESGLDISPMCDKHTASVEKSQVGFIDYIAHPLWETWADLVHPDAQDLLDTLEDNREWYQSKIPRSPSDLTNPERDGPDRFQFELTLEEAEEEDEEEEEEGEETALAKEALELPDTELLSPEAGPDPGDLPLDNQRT

Structure (SMILES)	IC50 (Human PDE4C1; [1]) [µM]	IC50 (human PDE4D3; [1]) [µM]	IC50 (Human PDE4B1; [1]) [µM]	IC50 (Human PDE4A3; [1]) [µM]	IC50 (Human PDE4C1; [2]) [µM]	IC50 (human PDE4D3; [2]) [µM]	IC50 (Human PDE4B1; [2]) [µM]	IC50 (Human PDE4A3; [2]) [µM]
O=C1c2c(-c3cc(F)c(F)c(F)c3)c3ncccc3n2CCN1C1CC1 [Example 40, 8-Cyclopropyl-10-(3,4,5-trifluorophenyl)-7,8-dihydropyrido[2′,3′:4,5]pyrrolo[1,2-a]pyrazin-9(6H)-one]	–	–	–	–	0.00436	0.0172	< 0.00067	< 0.00041
COc1ccc(-c2c3n(c4cccnc24)CCN(C2CC2)C3=O)cc1 [Example 44, 8-Cyclopropyl-10-(4-methoxyphenyl)-7,8-dihydropyrido[2′,3′:4,5]pyrrolo[1,2-a]pyrazin-9(6H)-one]	–	–	–	–	0.086	0.212	0.00637	0.033
O=C1c2c(-c3ccccc3)c3ncccc3n2CCN1C1CC1 [Example 42, 8-Cyclopropyl-10-phenyl-7,8-dihydropyrido[2′,3′:4,5]pyrrolo[1,2-a]pyrazin-9(6H)-one]	–	–	–	–	0.0541	1.05	0.0233	0.0122
O=C1c2c(-c3cncc(Cl)c3)c3ncccc3n2CCN1C1CC1 [Example 51, 10-(5-Chloropyridin-3-yl)-8-cyclopropyl-7,8-dihydropyrido[2′,3′:4,5]pyrrolo[1,2-a]pyrazin-9(6H)-one]	–	–	–	–	0.694	2.01	0.0261	0.0867
O=C1c2c(-c3ccc(F)c(Cl)c3)c3ncccc3n2CCN1C1CC1 [Example 36, 10-(3-Chloro-4-fluorophenyl)-8-cyclopropyl-7,8-dihydropyrido[2′,3′:4,5]pyrrolo[1,2-a]pyrazin-9(6H)-one]	–	–	–	–	0.00348	0.0281	< 0.0011	< 0.00067
Cc1ncc(-c2c3n(c4cccnc24)CCN(C2CC2)C3=O)cn1 [Example 21, 8-Cyclopropyl-10-(2-methylpyrimidin-5-yl)-7,8-dihydropyrido[2′,3′:4,5]pyrrolo[1,2-a]pyrazin-9(6H)-one]	–	–	–	–	0.132	4.34	0.0759	0.0086
O=C1c2c(-c3cccc(Cl)c3)c3ncccc3n2CCN1C1CC1 [Example 48, 10-(3-Chlorophenyl)-8-cyclopropyl-7,8-dihydropyrido[2′,3′:4,5]pyrrolo[1,2-a]pyrazin-9(6H)-one]	–	–	–	–	0.00316	0.0198	< 0.00072	0.001
O=C1c2c(-c3ccc(Cl)cc3)c3ncccc3n2CC2COCCN12 (stereo not drawn) [Example 63, 13-(4-Chlorophenyl)-6a,7,9,10-tetrahydro-6H,12H-pyrido[2″,3″:4′,5′]pyrrolo[1′,2′:4,5]pyrazino[2,1-c][1,4]oxazin-12-one]	–	–	–	–	0.731	1.35	0.0321	0.219
O=C1c2c(-c3ccc(F)cc3F)c3ncccc3n2CCN1C1CC1 [Example 38, 8-Cyclopropyl-10-(2,4-difluorophenyl)-7,8-dihydropyrido[2′,3′:4,5]pyrrolo[1,2-a]pyrazin-9(6H)-one]	–	–	–	–	0.021	0.569	0.0109	0.00559

The next lines start with the values.

IC50 (Human PDE4C1; [1]) [µM]	IC50 (human PDE4D3; [1]) [µM]	IC50 (Human PDE4B1; [1]) [µM]	IC50 (Human PDE4A3; [1]) [µM]	IC50 (Human PDE4C1; [2]) [µM]	IC50 (human PDE4D3; [2]) [µM]	IC50 (Human PDE4B1; [2]) [µM]	IC50 (Human PDE4A3; [2]) [µM]	Structure (SMILES)
0.106	0.0428	0.0662	0.044	–	–	–	–	CCNC(=O)N1CCn2c(c(-c3ccc(Cl)cc3)c3ncccc32)C1=O [Example 80, 10-(4-Chlorophenyl)-N-ethyl-9-oxo-6,7-dihydropyrido[2′,3′:4,5]pyrrolo[1,2-a]pyrazine-8(9H)-carboxamide]
8.42	16.1	11	8.08	–	–	–	–	Cc1nc(-c2c3n(c4cccnc24)CCN(C2CC2)C3=O)cs1 [Example 88, 8-Cyclopropyl-10-(2-methylthiazol-4-yl)-7,8-dihydropyrido[2′,3′:4,5]pyrrolo[1,2-a]pyrazin-9(6H)-one]
29.7	> 30	> 30	> 30	–	–	–	–	Cc1nccc(-c2c3n(c4cccnc24)CCN(C2CC2)C3=O)n1 [Example 81, 8-Cyclopropyl-10-(2-methylpyrimidin-4-yl)-7,8-dihydropyrido [2′,3′:4,5] pyrrolo[1,2-a]pyrazin-9(6H)-one]
0.173	0.12	0.212	0.104	–	–	–	–	CS(=O)(=O)N1CCn2c(c(-c3ccc(Cl)cc3)c3ncccc32)C1=O [Example 79, 10-(4-Chlorophenyl)-8-(methylsulfonyl)-7,8-dihydropyrido[2′,3′:4,5]pyrrolo[1,2-a]pyrazin-9(6H)-one]
4.96	0.724	0.437	0.254	–	–	–	–	CN(C)S(=O)(=O)c1cccc(-c2c3n(c4cccnc24)CCN(C2CC2)C3=O)c1 [Example 85, 3-(8-Cyclopropyl-9-oxo-6,7,8,9-tetrahydropyrido[2′,3′:4,5]pyrrolo[1,2-a]pyrazin-10-yl)-N,N-dimethylbenzenesulfonamide]
–	–	–	–	0.0138	0.481	0.0067	0.00565	Cc1ccc(-c2c3n(c4cccnc24)CCN(C2CC2)C3=O)c(C)c1 [Example 65, 8-Cyclopropyl-10-(2,4-dimethylphenyl)-7,8-dihydropyrido[2′,3′:4,5]pyrrolo[1,2-a]pyrazin-9(6H)-one]
